For eleven compounds, inhibition results are on record in article PMC9516332 (Frontiers in Oncology, 2022).

Assay in all cases: Kinase panel profiling at 1 µmol/L (MSA or IMAP), percentage inhibition
Common to all, as to type: biochemical

For assay [1], the target named is panel of 255 wild-type kinases (Homo sapiens, UniProt P06241). The following applies: read-out: %-inhibition at 1 µmol/L, FYN [isoform a].
For assay [2], the target named is panel of 255 wild-type kinases (Homo sapiens, UniProt P06493). The conditions noted are these: read-out: %-inhibition CDC2/CycB1.
Assay [3] concerns the target T1, panel of 255 wild-type kinases (Homo sapiens, UniProt P29322).
T1 sequence (P29322 28-1005): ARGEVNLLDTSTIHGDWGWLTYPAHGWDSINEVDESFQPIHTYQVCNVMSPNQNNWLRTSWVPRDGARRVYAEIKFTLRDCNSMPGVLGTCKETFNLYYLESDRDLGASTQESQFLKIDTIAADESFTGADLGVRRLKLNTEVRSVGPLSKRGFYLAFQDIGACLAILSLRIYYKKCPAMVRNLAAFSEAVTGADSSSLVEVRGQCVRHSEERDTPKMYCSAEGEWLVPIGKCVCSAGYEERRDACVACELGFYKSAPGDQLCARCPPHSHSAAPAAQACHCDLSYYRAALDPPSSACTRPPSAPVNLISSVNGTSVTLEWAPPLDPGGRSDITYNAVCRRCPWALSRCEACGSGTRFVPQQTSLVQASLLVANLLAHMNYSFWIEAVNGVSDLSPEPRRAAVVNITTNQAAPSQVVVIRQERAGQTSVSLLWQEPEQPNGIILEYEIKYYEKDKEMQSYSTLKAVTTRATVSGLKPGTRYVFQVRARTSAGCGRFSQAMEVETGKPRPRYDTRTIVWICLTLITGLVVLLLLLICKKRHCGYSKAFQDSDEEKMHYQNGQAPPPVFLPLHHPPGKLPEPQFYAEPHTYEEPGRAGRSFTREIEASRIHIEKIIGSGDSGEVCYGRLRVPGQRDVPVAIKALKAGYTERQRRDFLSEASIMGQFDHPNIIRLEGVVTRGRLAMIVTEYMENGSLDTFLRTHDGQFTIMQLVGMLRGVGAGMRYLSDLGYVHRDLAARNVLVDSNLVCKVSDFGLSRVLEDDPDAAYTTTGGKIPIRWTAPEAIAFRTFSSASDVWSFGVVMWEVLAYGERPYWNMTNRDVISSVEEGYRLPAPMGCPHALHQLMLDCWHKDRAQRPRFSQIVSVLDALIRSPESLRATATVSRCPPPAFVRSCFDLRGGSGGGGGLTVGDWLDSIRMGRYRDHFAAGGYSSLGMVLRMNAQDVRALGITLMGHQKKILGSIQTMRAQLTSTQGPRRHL
The following applies: read-out: %-inhibition at 1 µmol/L, EPHA8.

Assay [4] addresses panel of 255 wild-type kinases (Homo sapiens, UniProt P50613). The conditions noted are these: read-out: %-inhibition CDK7/CycH/MAT1.
Assay [5] deals with panel of 255 wild-type kinases (Homo sapiens, UniProt Q16288). The conditions noted are these: read-out: %-inhibition at 1 µmol/L, TRKC.
The target of assay [6] is T2, panel of 255 wild-type kinases (Homo sapiens, UniProt Q16566).
T2 sequence (Q16566 1-473): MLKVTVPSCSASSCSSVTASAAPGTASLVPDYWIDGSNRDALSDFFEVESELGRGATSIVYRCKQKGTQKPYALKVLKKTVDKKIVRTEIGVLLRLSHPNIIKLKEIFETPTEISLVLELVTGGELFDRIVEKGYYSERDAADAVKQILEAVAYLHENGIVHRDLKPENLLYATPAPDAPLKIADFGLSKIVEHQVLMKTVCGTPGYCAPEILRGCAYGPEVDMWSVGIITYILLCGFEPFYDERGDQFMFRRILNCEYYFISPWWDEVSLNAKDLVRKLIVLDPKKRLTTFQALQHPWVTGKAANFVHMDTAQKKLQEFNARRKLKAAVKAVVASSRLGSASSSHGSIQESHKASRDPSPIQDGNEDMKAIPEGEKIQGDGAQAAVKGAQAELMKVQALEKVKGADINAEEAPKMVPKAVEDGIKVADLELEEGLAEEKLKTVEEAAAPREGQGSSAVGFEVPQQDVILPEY
The conditions noted are these: read-out: %-inhibition CaMK4.

The target of assay [7] is T3, panel of 255 wild-type kinases (Homo sapiens, UniProt Q8IW41).
T3 sequence (Q8IW41 1-473): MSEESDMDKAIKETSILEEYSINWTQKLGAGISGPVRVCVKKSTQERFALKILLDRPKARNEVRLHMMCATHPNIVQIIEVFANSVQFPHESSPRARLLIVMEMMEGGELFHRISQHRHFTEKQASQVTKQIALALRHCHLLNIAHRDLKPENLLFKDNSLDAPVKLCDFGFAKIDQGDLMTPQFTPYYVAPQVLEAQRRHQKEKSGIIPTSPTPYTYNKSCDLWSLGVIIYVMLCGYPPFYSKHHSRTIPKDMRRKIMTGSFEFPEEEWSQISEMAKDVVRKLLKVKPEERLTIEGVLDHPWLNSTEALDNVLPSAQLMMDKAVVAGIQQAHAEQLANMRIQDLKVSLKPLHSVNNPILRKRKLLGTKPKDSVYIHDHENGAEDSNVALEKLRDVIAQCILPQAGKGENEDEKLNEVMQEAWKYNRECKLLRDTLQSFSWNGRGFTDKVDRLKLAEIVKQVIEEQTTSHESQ
The conditions noted are these: read-out: %-inhibition, MAPKAPK5.

The target of assay [8] is panel of 255 wild-type kinases (Homo sapiens, UniProt Q9H0K1). The conditions noted are these: read-out: %-inhibition at 1 µmol/L, QIK.
For assay [9], the target named is panel of 255 wild-type kinases (Homo sapiens, UniProt Q9H2G2). The conditions noted are these: read-out: %-inhibition at 1 µmol/L, SLK.
Setting [10] is: kinase FYN [isoform a], 1 µmol/L single concentration.
The mark [11] stands for this setting: CDC2/CycB1 kinase assay, 1 µmol/L single concentration.
Where [12] appears, read: kinase EPHA8, 1 µmol/L single concentration.
Setting [13] is: CDK7/CycH/MAT1 kinase assay, 1 µmol/L single concentration.
The mark [14] stands for this setting: kinase TRKC, 1 µmol/L single concentration.
The mark [15] stands for this setting: CaMK4 kinase assay, 1 µmol/L single concentration.
Setting [16] is: MAPKAPK5, 1 µmol/L single concentration.
[17] abbreviates: kinase QIK, 1 µmol/L single concentration.
The mark [18] stands for this setting: kinase SLK, 1 µmol/L single concentration.

Where two headings read alike, the source gives them in different places.

For `Cc1nc(NC(=O)N2CCC[C@H]2C(N)=O)sc1-c1ccnc(C(C)(C)C(F)(F)F)c1` [alpelisib], the inhibition at 1 µM is 1.52% in assay [1] (setting [10]); -3.48% in [2] (setting [11]); -6.59% in assay [3] (setting [12]); -4% in assay [4] (setting [13]); 2.52% in [5] (setting [14]); -7% in assay [6] (setting [15]). Moreover, the inhibition at 1 µM in assay [7] (setting [16]) is -2.15%; in [8] (setting [17]), 2.48%; in assay [9] (setting [18]), 8%.
In the case of `Cn1cc(-c2cc3c(N4CCN(c5ncc([C@@](C)(N)c6ccc(F)cc6)cn5)CC4)ncnn3c2)cn1` [avapritinib], the inhibition at 1 µM in [1] (setting [10]) is 57%; in [2] (setting [11]), 3%; in assay [3] (setting [12]) it was 73%; in assay [4] (setting [13]) it was 0.833%; in [5] (setting [14]), 57%; in [6] (setting [15]), -0.588%. The inhibition at 1 µM in [7] (setting [16]) worked out at 2%; in [8] (setting [17]) it was 44%; in [9] (setting [18]), 36%.
In the case of `Cn1cnc2c(F)c(Nc3ccc(Br)cc3F)c(C(=O)NOCCO)cc21` [binimetinib], the inhibition at 1 µM in assay [1] (setting [10]) is 3.76%; in assay [2] (setting [11]) it was 2.36%; in assay [3] (setting [12]), 2.68%; in assay [4] (setting [13]), -5%; in assay [5] (setting [14]), -0.843%; in assay [6] (setting [15]), 2.67%. In addition, the results for the inhibition at 1 µM in [7] (setting [16]), in [8] (setting [17]) and in [9] (setting [18]) were -4.73%, -4% and 3.27%, respectively.
Take `CNC(=O)c1ccc(-c2cnc3ncc(Cc4ccc5ncccc5c4)n3n2)cc1F` [capmatinib]: the inhibition at 1 µM in assay [1] was -2%; in assay [2], 2%; in [3], -14%; in [4] it was -0.376%; in [5], 19%; in assay [6] it was -2.8%. Also, the inhibition at 1 µM is -7% in assay [7], -2.24% in assay [8] and 7.55% in [9].
For the compound `COc1cc2ncnc(Nc3ccc(F)c(Cl)c3)c2cc1NC(=O)/C=C/CN1CCCCC1` [dacomitinib], the inhibition at 1 µM in assay [1] (setting [10]) was 32%; in assay [2] (setting [11]) it was -6%; in [3] (setting [12]), 59%; in assay [4] (setting [13]) it was 3.35%; in [5] (setting [14]), -0.0882%; in assay [6] (setting [15]), 2.44%. Moreover, the inhibition at 1 µM in assay [7] (setting [16]) is -4.47%; in assay [8] (setting [17]), 68%; in assay [9] (setting [18]) it was 78%.
Take `C[C@H](Nc1ncnc2nc[nH]c12)c1cc2cccc(Cl)c2c(=O)n1-c1ccccc1` [duvelisib]: the inhibition at 1 µM was 0.67% in assay [1] (setting [10]); -0.937% in assay [2] (setting [11]); -7% in assay [3] (setting [12]); -5.41% in assay [4] (setting [13]); 2% in assay [5] (setting [14]); -3% in assay [6] (setting [15]). Moreover, the inhibition at 1 µM in assay [7] (setting [16]) is 0.859%; in assay [8] (setting [17]), 2.15%; in [9] (setting [18]), 7.44%.
As to `COC(=O)N[C@@H](C)CNc1nccc(-c2cn(C(C)C)nc2-c2cc(Cl)cc(NS(C)(=O)=O)c2F)n1` [encorafenib], the inhibition at 1 µM is 6% in assay [1] (setting [10]); 8% in assay [2] (setting [11]); 16% in [3] (setting [12]); -6.5% in assay [4] (setting [13]); -0.54% in assay [5] (setting [14]); 4.35% in assay [6] (setting [15]). The results for the inhibition at 1 µM in assay [7] (setting [16]), in assay [8] (setting [17]) and in [9] (setting [18]) were -4%, -0.749% and 6%, respectively.
On to `CN1CCN(c2ccc(C(=O)Nc3n[nH]c4ccc(Cc5cc(F)cc(F)c5)cc34)c(NC3CCOCC3)c2)CC1` [entrectinib], for which the inhibition at 1 µM in [1] (setting [10]) is 96%; in assay [2] (setting [11]), 3.63%; in [3] (setting [12]), 55%; in assay [4] (setting [13]), 27%; in assay [5] (setting [14]), 100%; in [6] (setting [15]), 1.07%. Besides, the inhibition at 1 µM in [7] (setting [16]) was 0.65%; in [8] (setting [17]), 6.5%; in assay [9] (setting [18]) it was 63%.
Regarding `CCc1nc(C(N)=O)c(Nc2ccc(N3CCC(N4CCN(C)CC4)CC3)c(OC)c2)nc1NC1CCOCC1` [gilteritinib], the inhibition at 1 µM in [1] (setting [10]) was 84%; in [2] (setting [11]), 26%; in [3] (setting [12]), 66%; in assay [4] it was 31%; in assay [5] (setting [14]) it was 100%; in assay [6] (setting [15]), 18%. Further, the inhibition at 1 µM in assay [7] (setting [16]) was -0.923%; in assay [8] (setting [17]), 63%; in assay [9] (setting [18]) it was 99%.
On to `C[C@H]1Oc2cc(cnc2N)-c2c(nn(C)c2C#N)CN(C)C(=O)c2ccc(F)cc21` [lorlatinib], for which the inhibition at 1 µM amounted to 15% in assay [1] (setting [10]); 3.16% in assay [2] (setting [11]); 6% in assay [3] (setting [12]); 1.56% in [6] (setting [15]); 2.32% in [7] (setting [16]); 2.53% in assay [8] (setting [17]). For the same compound, the inhibition at 1 µM in assay [9] (setting [18]) was determined as 90%.
In the case of `C=CC(=O)N1CCC([C@@H]2CCNc3c(C(N)=O)c(-c4ccc(Oc5ccccc5)cc4)nn32)CC1` [zanubrutinib], the inhibition at 1 µM in assay [2] (setting [11]) was -7%; in assay [3] (setting [12]), -8%; in assay [4] (setting [13]) it was -9%; in [5] (setting [14]), -3.55%; in assay [6] (setting [15]) it was 0.733%; in assay [7] (setting [16]), -3.6%. Moreover, the results for the inhibition at 1 µM in assay [8] (setting [17]) and in assay [9] (setting [18]) were -4% and 2.36%, respectively.
